Results as given in patent publication US20060104903A1, “Model for evaluating the efficacy of locally applied antiproliferatives or other agents on neointimal hyperplasia, immunohistochemical and vascular cell cycle changes in balloon-injured rat carotid arteries” (priority 2004, published 2006).

What was measured:
Assay type in all cases: in vivo
[1] = tested on: balloon-injured rat carotid artery; test: Cell proliferation in injured rat carotid artery, PCNA immunohistochemistry; details: 200 μg in pluronic gel suspension, perivascular, seven days post injury
Experimental: (§1) The delivery vehicle may comprise any suitable device. In the exemplary embodiment, the delivery vehicle comprises silastic tubing as illustrated in FIG. 1. The silastic tubing 300 is about 10 mm long with an outside diameter of about 1.5 mm. The total luminal volume, based upon emperical measurement, is about 20 μL. It is important to note that the silastic tubing 300 may comprise any suitable length. The length of the tubing is determined by the amount of artery resected. The silastic tubing may comprise a notch 302 on one end to facilitate placement thereof over the carotid artery. The silastic tubing is then autoclaved prior to surgery. The silastic tubing is filled with about 20 μL of the pluronic gel comprising a suspension, solution or combination suspension and solution of test agent. The pluronic gel formulation to be encased within the silastic tubing is dispersed into the silastic tubing utilizing a 20 μL adjustable pipette with a sterile tip. The pluronic vehicle or pluronic drug solution remains on ice until immediately before pipetting and dispensing into the silastic tubing.
(§2) The next step in the process comprises the surgical procedure. The rat is anesthetized prior to surgical intervention. The rat may be anesthetized utilizing any number of anesthetizing agents, both inhalational and/or injectable. […]

[2] = tested on: balloon-injured rat carotid artery; test: Neointimal hyperplasia in balloon-injured rat carotid artery, histomorphometric analysis after perivascular delivery
Experimental: as §1, §2

[3] = tested on: balloon-injured rat carotid artery; test: Vascular wall cell cycle and apoptotic nuclei in injured rat carotid artery, flow cytometry (propidium iodide); details: 200 μg in pluronic gel suspension, perivascular, seven days post injury
Experimental: as §1, §2

| SMILES | neointimal proliferation (PCNA labeling) [1] | neointima formation (FIG. 3 slides) ([2]; 200 μg in pluronic gel, perivascular administration) | neointimal formation (FIG. 2) ([2]; perivascular application) | percentage nuclei in the G0/G1 phases [3] | total percentage of apoptotic cells in the injured vessel wall [3] |
| --- | --- | --- | --- | --- | --- |
| CC(=O)O[C@H]1C(=O)[C@@]2(C)[C@H]([C@H](OC(=O)c3ccccc3)[C@]3(O)C[C@H](OC(=O)[C@H](O)[C@@H](NC(=O)c4ccccc4)c4ccccc4)C(C)=C1C3(C)C)[C@]1(OC(C)=O)CO[C@@H]1C[C@@H]2O [paclitaxel] | significantly reduce | substantial-reduction | significantly reduced | increases | increase |
| CC[C@@]1(O)C(=O)OCc2c1cc1n(c2=O)Cc2cc3c(CN(C)C)c(O)ccc3nc2-1 [Topotecan] | substantially no effect |  |  |  |  |
